Where two headings read alike, the source gives them in different places.
Legend:
Experiment in all cases: DSF 100 kinase selectivity screen;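 note: compound tested at 20 µM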
Type in all cases: binding
[1] = biological target: T1, ~100 representative kinases (Homo sapiens, UniProt O14976); conditions: protein GAK; average of three replicates
T1 construct: Recombinant protein kinase domains with a concentration of 2 μM
T1 sequence (O14976 1-1311): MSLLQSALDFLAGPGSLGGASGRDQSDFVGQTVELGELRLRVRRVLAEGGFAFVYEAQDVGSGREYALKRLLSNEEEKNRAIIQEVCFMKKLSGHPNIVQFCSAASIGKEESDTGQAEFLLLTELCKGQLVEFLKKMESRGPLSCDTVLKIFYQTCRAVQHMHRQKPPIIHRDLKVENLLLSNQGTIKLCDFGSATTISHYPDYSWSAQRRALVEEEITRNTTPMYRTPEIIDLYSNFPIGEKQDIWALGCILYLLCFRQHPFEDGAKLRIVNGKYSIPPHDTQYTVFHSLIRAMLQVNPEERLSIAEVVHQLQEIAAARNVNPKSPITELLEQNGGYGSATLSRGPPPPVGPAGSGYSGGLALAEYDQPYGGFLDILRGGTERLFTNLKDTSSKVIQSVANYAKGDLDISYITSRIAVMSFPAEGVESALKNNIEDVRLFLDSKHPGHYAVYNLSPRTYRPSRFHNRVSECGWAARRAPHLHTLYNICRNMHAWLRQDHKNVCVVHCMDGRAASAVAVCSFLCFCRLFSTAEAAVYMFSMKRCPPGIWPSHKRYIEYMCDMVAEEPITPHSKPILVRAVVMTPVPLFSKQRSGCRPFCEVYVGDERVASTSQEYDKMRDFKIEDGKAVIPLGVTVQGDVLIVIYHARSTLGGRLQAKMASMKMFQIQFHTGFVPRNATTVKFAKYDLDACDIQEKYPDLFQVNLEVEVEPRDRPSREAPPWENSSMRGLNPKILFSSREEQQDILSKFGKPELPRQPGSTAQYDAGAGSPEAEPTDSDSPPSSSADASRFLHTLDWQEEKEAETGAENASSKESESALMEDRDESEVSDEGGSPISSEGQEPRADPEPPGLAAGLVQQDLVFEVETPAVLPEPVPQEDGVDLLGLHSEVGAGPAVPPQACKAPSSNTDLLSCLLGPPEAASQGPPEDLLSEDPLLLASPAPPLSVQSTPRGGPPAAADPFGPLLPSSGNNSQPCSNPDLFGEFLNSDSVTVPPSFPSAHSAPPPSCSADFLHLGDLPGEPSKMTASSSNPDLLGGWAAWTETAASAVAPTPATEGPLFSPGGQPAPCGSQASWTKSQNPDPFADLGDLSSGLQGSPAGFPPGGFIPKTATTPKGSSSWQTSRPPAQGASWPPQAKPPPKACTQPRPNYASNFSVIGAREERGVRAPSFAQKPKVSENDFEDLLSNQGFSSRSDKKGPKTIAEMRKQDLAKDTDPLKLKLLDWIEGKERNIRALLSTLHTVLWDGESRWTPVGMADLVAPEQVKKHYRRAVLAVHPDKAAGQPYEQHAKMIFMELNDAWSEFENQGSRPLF
How it was run: (§1)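 Each kinase domain, at 2 μM, is mixed with 20 μM test compound and SYPRO Orange in Hepes (20 mM, pH 7.5) with 500 mM NaCl. Temperature is then raised at 3°C/min and fluorescence-monitored unfolding yields the melting temperature change, ΔTm in degrees Celsius.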

[2] = biological target: T2, ~100 representative kinases (Homo sapiens, UniProt O94804); conditions: Protein STK10; DSF; average of three replicates
T2 construct: Recombinant protein kinase domains with a concentration of 2 μM
How it was run: as §1

[3] = biological target: T3, ~100 representative kinases (Homo sapiens, UniProt O96017); conditions: Protein CHEK2; average of three replicates
T3 construct: Recombinant protein kinase domains with a concentration of 2 μM
How it was run: as §1

[4] = biological target: T4, ~100 representative kinases (Homo sapiens, UniProt P54753); conditions: Protein EPHB3A; average of three replicates
T4 construct: Recombinant protein kinase domains with a concentration of 2 μM
T4 sequence (P54753 34-998): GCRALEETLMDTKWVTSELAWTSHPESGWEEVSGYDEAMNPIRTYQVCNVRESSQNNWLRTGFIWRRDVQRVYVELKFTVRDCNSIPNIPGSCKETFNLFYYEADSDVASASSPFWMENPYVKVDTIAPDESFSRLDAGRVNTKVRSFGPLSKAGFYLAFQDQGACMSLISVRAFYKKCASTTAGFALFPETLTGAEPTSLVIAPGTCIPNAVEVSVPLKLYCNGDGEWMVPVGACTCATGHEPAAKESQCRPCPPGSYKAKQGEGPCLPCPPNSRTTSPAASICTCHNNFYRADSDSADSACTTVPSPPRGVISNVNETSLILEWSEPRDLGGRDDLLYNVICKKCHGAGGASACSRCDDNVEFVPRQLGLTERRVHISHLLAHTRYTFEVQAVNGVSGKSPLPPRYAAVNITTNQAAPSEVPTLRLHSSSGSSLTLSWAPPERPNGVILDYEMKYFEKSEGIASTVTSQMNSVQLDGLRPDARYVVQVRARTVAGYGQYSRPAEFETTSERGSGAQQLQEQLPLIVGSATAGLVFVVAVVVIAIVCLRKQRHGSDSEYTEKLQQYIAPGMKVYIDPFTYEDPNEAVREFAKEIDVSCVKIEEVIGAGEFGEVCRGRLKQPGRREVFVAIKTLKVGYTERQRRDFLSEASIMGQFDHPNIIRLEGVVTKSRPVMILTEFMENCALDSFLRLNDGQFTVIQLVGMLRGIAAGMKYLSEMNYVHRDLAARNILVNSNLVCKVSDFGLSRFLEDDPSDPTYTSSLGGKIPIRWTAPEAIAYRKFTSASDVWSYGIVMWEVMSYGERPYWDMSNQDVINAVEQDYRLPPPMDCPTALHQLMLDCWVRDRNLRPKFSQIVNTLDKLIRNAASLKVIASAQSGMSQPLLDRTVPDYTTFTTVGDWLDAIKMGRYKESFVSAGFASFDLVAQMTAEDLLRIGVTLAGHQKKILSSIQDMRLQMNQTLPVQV
How it was run: as §1

[5] = biological target: T5, ~100 representative kinases (Homo sapiens, UniProt Q16539)
T5 construct: Recombinant protein kinase domains with a concentration of 2 μM
How it was run: as §1

[6] = biological target: T6, ~100 representative kinases (Homo sapiens, UniProt Q8TDX7); conditions: protein NEK7; average of three replicates
T6 construct: Recombinant protein kinase domains with a concentration of 2 μM
How it was run: as §1

[7] = biological target: T7, ~100 representative kinases (Homo sapiens, UniProt Q9UEW8); conditions: Protein STK39; DSF; average of three replicates
T7 construct: Recombinant protein kinase domains with a concentration of 2 μM
How it was run: as §1

[8] = biological target: T8, ~100 representative kinases (Homo sapiens, UniProt Q9Y6E0); conditions: protein MST3; average of three replicates
T8 construct: Recombinant protein kinase domains with a concentration of 2 μM
How it was run: as §1

[9] = protein MAPK14, average of three replicates

T5 sequence (Q16539 whole entry, the tested form may be a part): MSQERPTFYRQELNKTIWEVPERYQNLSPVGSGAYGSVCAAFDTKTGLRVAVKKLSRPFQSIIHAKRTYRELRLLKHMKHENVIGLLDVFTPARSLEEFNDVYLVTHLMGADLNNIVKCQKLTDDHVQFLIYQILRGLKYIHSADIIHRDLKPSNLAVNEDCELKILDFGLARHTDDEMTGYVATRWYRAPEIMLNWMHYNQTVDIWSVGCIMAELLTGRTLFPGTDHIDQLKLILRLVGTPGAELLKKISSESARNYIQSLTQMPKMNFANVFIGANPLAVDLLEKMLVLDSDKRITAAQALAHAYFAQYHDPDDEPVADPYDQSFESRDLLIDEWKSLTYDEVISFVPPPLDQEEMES
T3 sequence (O96017 whole entry, the tested form may be a part): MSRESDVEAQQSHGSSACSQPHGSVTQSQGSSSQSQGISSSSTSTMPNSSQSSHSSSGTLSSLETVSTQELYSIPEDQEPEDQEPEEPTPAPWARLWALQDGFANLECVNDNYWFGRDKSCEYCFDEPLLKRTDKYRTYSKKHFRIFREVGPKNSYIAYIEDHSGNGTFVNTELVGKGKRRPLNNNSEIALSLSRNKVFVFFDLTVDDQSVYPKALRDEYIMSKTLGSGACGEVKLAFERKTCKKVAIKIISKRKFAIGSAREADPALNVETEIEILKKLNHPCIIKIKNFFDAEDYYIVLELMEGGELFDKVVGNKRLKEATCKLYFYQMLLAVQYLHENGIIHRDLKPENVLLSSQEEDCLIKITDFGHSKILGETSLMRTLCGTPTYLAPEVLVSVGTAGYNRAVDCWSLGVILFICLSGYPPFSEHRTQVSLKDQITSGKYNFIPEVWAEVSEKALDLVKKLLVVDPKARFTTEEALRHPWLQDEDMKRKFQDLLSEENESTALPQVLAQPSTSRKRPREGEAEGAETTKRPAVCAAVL
T2 sequence (O94804 whole entry, the tested form may be a part): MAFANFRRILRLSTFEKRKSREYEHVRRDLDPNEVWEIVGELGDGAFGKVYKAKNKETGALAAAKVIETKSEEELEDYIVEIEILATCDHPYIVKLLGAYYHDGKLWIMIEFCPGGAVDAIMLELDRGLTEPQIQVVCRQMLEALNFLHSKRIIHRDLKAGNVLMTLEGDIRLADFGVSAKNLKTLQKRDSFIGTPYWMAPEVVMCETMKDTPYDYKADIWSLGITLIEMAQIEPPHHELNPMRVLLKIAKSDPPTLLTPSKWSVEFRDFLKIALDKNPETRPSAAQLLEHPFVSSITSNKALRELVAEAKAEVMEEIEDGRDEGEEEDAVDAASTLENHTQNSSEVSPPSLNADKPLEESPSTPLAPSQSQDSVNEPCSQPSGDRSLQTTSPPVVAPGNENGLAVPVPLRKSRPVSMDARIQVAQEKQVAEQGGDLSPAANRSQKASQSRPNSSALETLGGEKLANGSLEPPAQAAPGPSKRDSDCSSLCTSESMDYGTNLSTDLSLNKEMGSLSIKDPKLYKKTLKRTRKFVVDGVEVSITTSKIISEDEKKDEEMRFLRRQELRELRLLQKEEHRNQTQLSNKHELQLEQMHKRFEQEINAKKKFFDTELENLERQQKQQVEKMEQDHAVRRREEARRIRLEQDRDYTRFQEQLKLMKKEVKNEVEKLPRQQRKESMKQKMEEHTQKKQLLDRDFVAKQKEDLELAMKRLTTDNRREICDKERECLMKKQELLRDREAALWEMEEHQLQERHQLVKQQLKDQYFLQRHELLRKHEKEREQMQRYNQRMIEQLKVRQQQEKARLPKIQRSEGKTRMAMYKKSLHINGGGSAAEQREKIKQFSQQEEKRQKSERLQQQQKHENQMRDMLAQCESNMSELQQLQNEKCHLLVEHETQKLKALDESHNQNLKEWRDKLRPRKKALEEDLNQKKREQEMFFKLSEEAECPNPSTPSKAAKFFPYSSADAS
T6 sequence (Q8TDX7 whole entry, the tested form may be a part): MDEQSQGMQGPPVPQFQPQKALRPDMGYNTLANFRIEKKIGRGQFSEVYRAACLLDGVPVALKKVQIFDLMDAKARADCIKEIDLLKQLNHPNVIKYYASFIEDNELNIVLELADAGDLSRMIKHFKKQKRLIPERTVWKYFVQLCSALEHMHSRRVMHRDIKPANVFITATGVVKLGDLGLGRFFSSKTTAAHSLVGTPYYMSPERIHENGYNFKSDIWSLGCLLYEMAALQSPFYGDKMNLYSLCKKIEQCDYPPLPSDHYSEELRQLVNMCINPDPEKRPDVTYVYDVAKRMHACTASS
T8 sequence (Q9Y6E0 whole entry, the tested form may be a part): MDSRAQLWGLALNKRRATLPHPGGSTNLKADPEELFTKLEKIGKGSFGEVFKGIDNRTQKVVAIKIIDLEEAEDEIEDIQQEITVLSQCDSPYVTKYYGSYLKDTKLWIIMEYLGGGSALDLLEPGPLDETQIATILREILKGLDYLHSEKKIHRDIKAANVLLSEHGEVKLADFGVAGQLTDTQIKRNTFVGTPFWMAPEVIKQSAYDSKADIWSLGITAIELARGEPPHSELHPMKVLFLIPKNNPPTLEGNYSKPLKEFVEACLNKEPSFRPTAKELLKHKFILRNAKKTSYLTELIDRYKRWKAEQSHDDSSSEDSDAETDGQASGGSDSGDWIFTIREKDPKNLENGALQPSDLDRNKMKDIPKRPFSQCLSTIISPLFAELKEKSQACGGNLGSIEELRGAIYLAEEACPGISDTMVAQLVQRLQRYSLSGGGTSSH

dTm [1]	dTm [2]	dTm [3]	dTm [4]	dTm [5, 9]	dTm [6]	dTm [7]	dTm [8]	SMILES	dTm [5]
0.67 K	9.26 K	3.32 K	1.84 K	-0.38 K	0.03 K	1.14 K	5.25 K	O=C(Nc1cccc(-c2c[nH]c3ncnc(N4CCOCC4)c23)c1)C1(C(=O)Nc2ccc(F)cc2F)CC1 [Compound 23]	–
1.48 K	16.12 K	5.31 K	3.99 K	1.97 K	0.98 K	3.28 K	8.98 K	Cc1cc(NC(=O)C2(C(=O)Nc3cccc(-c4c[nH]c5ncnc(N6CCOCC6)c45)c3)CC2)ccc1F [Compound 20]	–
3.32 K	13.28 K	5.59 K	-1.56 K	3.92 K	-0.91 K	1.08 K	3.03 K	CC(=O)N1CCN(c2nc(Cl)nc3[nH]cc(-c4cccc(NC(=O)Nc5cc(C(C)(C)C)nn5-c5ccc(C)cc5)c4)c23)CC1 [Compound 31]	–
0.83 K	11.03 K	1.23 K	0.34 K	1.61 K	0.23 K	1.36 K	-0.29 K	Cc1cc(NC(=O)C2(C(=O)Nc3ccc(F)cc3)CC2)cc(-c2c[nH]c3ncnc(N4CCOCC4)c23)c1 [Compound 6]	–
1.44 K	11.85 K	3.05 K	3.99 K	0.0252 K	-0.19 K	2.09 K	3.58 K	O=C(Nc1ccccc1)C1(C(=O)Nc2cccc(-c3c[nH]c4ncnc(N5CCOCC5)c34)c2)CC1 [Compound 12]	–
1.18 K	16.12 K	3.80 K	1.12 K	3.30 K	-1.14 K	1.45 K	3.29 K	O=C(Nc1cccc(-c2c[nH]c3ncnc(N4CCOCC4)c23)c1)C1(C(=O)Nc2ccc(F)c(Br)c2)CC1 [Compound 19]	–
-1.53 K	13.38 K	4.41 K	0.0373 K	2.81 K	-1.05 K	1.34 K	0.96 K	Cc1ccc(-n2nc(C(C)(C)C)cc2NC(=O)Nc2cccc(-c3c[nH]c4nc(Cl)nc(N5CCOCC5)c34)c2)cc1 [Compound 30]	–

SMILES	dTm [1]	dTm [2]	dTm [3]	dTm [4]	dTm [5, 9]	dTm [6]	dTm [7]	dTm [8]	dTm [5]
Cc1ccc(C(=O)Nc2ccc(CN3CCN(C)CC3)c(C(F)(F)F)c2)cc1C#Cc1cnc2cccnn12 [Ponatinib, reference compound]	–	–	–	13.49 K	12.52 K	0.07 K	–	–	–
Cn1cc(-c2c[nH]c3ncnc(N4CCOCC4)c23)cc1C#N [PFE-360]	-0.50 K	7.58 K	3.22 K	0.07 K	0.53 K	-0.13 K	-0.25 K	2.72 K	–
Cc1ccc(C(=O)Nc2ccc(CN3CCN(C)CC3)c(C(F)(F)F)c2)cc1C#Cc1cnc2[nH]ncc2c1 [GZD-824, reference compound]	11.23 K	–	5.84 K	15.76 K	–	1.00 K	4.29 K	10.01 K	17.66 K
CN[C@@H]1C[C@H]2O[C@@](C)([C@@H]1OC)n1c3ccccc3c3c4c(c5c6ccccc6n2c5c31)C(=O)NC4 [Staurosporine]	–	22.21 K	–	7.02 K	–	–	9.01 K	–	–
CNC(=O)c1cc(Oc2ccc(NC(=O)Nc3cc(C(C)(C)C)nn3-c3ccc4ncccc4c3)c(F)c2)ccn1 [Rebastinib, reference compound]	4.99 K	16.27 K	10.49 K	-2.84 K	20.84 K	3.06 K	1.13 K	–	–

— publication PMC12136037, “Type II kinase inhibitors that target Parkinson’s disease–associated LRRK2” (Science Advances, 2025)
